Experimental data as given in US6800650B2, “Pyridine and quinoline derivatives” (Hoffmann-La Roche Inc., priority 2002, dated 2004).

Biological target: T1, human DPP-IV (Homo sapiens, UniProt P27487)
T1 construct: made in house; host or cells: Pichia pastoris, purified from the culture medium
Assay: DPP-IV activity assay (colorimetric / fluorometric), IC50 determination
Format: biochemical
Details: natural human DPP-IV from human plasma pool or recombinant human DPP-IV; 37° C., pH 7.8
Experimental: The following tests were carried out in order to determine the activity of the compounds of formula I.
Activity of DPP-IV inhibitors are tested with natural human DPP-IV derived from a human plasma pool or with recombinant human DPP-IV. Human citrate plasma from different donors is pooled, filtered through a 0.2 micron membrane under sterile conditions, and aliquots of 1 ml are shock frozen and stored at −120° C. until used. In the colorimetric DPP-IV assay 5 to 10 μl human plasma, and in the fluorometric assay 1.0 μl of human plasma in a total assay volume of 100 μl is used as an enzyme source. The cDNA of the human DPP-IV sequence of amino acid 31- to 766, restricted for the N-terminus and the transmembrane domain, is cloned into pichia pastoris. The sequence is available under Accession Number NM_001935. It is also disclosed, for example, in Misumi et al. (1992), molecular cloning and sequence analysis of human dipeptidyl peptidase IV, a serine proteinase of the cell surface. Biochim Biophys. Acta 1131(3), 333-336. Human DPP-IV is expressed and purified from the culture medium using conventional column chromatography including size exclusion and anion and cation chromatography. The purity of the final enzyme preparation of Coomassie blue SDS-PAGE is >95%. In the colorimetric DPP-IV assay 20 ng rec.-h DPP-IV and in the fluorometric assay 2 ng rec-h DPP-IV in a total assay volume of 100 μl is used as an enzyme source.
In the fluorogenic assay Ala-Pro-7-amido-4-trifluoromethylcoumarin (Calbiochem No 125510) is used as a substrate. A 20 mM stock solution in 10% DMF/H2O is stored at −20° C. until use. In IC50 determinations a final substrate concentration of 50 μM is used. In assays to determine kinetic parameters as Km, Vmax, Ki, the substrate concentration is varied between 10 μM and 500 μM.
In the colorimetric assay H-Ala-Pro-pNA.HCl (Bachem L-1115) is used as a substrate. A 10 mM stock solution in 10% MeOH/H2O is stored at −20° C. until use. In IC50 determinations a final substrate concentration of 200 μM is used. In assays to determine kinetic parameters as Km, Vmax, Ki, the substrate concentration is varied between 100 μM and 2000 μM.
Fluorescence is detected in a Perkin Elmer Luminescence Spectrometer LS 50B at an excitation wavelength of 400 nm and an emission wavelength of 505 nm continuously every 15 seconds for 10 to 30 minutes. Initial rate constants are calculated by best fit linear regression.
The absorption of pNA i.e., para-nitroanilin, liberated from the colorimetric substrate is detected in a Packard SpectraCount at […] continuously every 2 minutes for 30 to 120 minutes. Initial rate constants are calculated by best fit linear regression.
DPP-IV activity assays are performed in 96 well plates at 37° C. in a total assay volume of 100 μl. The assay buffer consists of 50 mM Tris/HCl pH 7.8 containing 0.1 mg/ml BSA and 100 mM NaCl. Test compounds are solved in 100% DMSO, diluted to the desired concentration in 10% DMSO/H2O. The final DMSO concentration in the assay is 1% (v/v). At this concentration enzyme inactivation by DMSO is <5%. Compounds are with (10 minutes at 37° C.) and without preincubation with the enzyme. Enzyme reactions are started with substrate application followed by immediate mixing.
IC50 determinations of test compounds are calculated by non-linear best fit regression of the DPP-IV inhibition of at least 5 different compound concentrations. Kinetic parameters of the enzyme reaction are calculated at least 5 different substrate concentrations and at least 5 different test compound concentrations.

T1 sequence (P27487 31-766): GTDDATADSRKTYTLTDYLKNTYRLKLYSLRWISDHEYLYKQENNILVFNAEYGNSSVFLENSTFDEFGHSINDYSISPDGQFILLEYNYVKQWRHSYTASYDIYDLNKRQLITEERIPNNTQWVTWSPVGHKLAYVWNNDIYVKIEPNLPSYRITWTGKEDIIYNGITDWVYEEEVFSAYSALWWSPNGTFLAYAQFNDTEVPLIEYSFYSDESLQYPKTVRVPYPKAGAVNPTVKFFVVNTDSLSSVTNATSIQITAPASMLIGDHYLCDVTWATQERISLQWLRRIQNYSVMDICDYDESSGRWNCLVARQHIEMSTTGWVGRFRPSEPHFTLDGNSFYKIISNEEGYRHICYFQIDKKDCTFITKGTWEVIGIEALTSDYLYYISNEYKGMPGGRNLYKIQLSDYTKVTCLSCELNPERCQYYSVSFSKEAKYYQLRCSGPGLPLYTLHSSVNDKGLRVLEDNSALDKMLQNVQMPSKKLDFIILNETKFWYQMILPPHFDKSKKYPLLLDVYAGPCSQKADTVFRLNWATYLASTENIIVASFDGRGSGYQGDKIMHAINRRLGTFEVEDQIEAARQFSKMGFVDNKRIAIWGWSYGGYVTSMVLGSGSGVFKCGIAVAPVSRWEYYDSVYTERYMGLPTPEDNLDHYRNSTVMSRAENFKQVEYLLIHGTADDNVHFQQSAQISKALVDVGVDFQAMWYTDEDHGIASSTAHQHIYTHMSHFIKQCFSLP

SMILES | IC50
NCc1c(N)nc2c(c1-c1ccc(Cl)cc1Cl)CCc1ccccc1-2 [Example 3, 3-Aminomethyl-4-(2,4-dichloro-phenyl)-5,6-dihydro-benzo[h]quinolin-2-ylamine] | 45 nM
NCc1c(N)nc2c(c1-c1ccc(Cl)cc1Cl)COc1ccccc1-2 [Example 9, 2-Aminomethyl-1-(2,4-dichloro-phenyl)-10H-9-oxa-4-aza-phenanthren-3-ylamine] | 18 nM
COc1cc2c(cc1OC)-c1nc(N)c(CN)c(-c3ccc(Cl)cc3Cl)c1C2 [Example 7, 3-Aminomethyl-4-(2,4-dichloro-phenyl)-7,8-dimethoxy-5H-indeno[1,2-b]pyridin-2-ylamine] | 2.7 nM
NCc1c(N)nc2c(c1-c1ccc(Cl)cc1Cl)CCc1sccc1-2 [Example 10, 3-Aminomethyl-4-(2,4-dichloro-phenyl)-5,6-dihydro-thieno[2,3-h]quinolin-2-ylamine] | 80 nM
Cc1ccc(-c2c(CN)c(N)nc3ccccc23)cc1 [Example 25, 3-Aminomethyl-4-p-tolyl-quinolin-2-ylamine] | 1910 nM

Other lines, results leading:

IC50 | SMILES
1590 nM | NCc1c(N)nc2ccc(Cl)cc2c1-c1ccccc1Cl [Example 28, 3-Aminomethyl-6-chloro-4-(2-chloro-phenyl)-quinolin-2-ylamine]
366 nM | NCc1c(N)nc2ccccc2c1-c1ccccc1Cl [Example 32, 3-Aminomethyl-4-(2-chloro-phenyl)-quinolin-2-ylamine]
